One series deals with PHD2 (Homo sapiens (Human), UniProt Q9GZT9). Briefly: PHD enzyme assay (Eu-VBC TR-fluorescence). Format: biochemical. As to the method: VHL/elongin B/elongin C were constructed, expressed and purified, and VHL was labeled. PHD1, PHD2 and PHD3 were constructed, expressed and purified. VBC protein was labeled with DELFIA Eu-Labeling Kit. A NeutrAvidin 96-well plate was blocked after the addition of 200 μL Blocker Casein to each well, followed by incubation for 30 min. Each well was washed 3 times by adding 200 μL of washing buffer each time. […] Each well was washed 3 times by adding 200 μL of washing buffer each time. A 1 mM Biotin solution was prepared with Blocker Casein, and 100 μL of the solution was added to each well, followed by incubation for 30 min. Each well was washed 3 times by adding 200 μL of washing buffer each time. A 20× compound solution was prepared with PHD reaction buffer, with the final concentration of DMSO being 1%. […] After mixing homogeneously, the wells were incubated for 60 min. Each well was washed 3 times by adding 200 μL of washing buffer each time A 1 ng/μL Eu-VBC solution was prepared with Eu-VBC binding buffer, and 100 μL of the solution was added to each well, followed by incubation for 60 min. Each well was washed 6 times by adding 200 μL DELFIA Wash Concentrate each time. 100 μL DELFIA Enhancement Solution was added to each well. […] The flurescence of the sample wells was recorded as FLUsample, the flurescence of the full active wells was recorded as FLU100%, and the flurescence of the blank well was recorded as FLU0%.
PHD2, sequence (Q9GZT9 whole entry): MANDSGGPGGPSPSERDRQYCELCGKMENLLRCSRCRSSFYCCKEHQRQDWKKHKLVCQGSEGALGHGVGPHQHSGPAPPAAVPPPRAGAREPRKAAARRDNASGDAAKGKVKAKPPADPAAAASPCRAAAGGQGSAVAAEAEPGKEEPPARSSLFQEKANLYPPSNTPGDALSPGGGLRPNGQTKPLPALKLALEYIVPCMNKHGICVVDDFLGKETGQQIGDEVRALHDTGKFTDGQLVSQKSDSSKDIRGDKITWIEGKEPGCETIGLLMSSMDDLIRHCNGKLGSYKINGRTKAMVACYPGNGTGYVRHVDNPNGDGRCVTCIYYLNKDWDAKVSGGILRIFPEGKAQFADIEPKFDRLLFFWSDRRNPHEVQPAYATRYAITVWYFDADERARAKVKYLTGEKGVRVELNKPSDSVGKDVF

In the next series the target is hERG channels (Homo sapiens (Human), UniProt Q12809). Briefly: cell-based. The class given is cell-based. Conditions: for Inhibitory effect on hERG current at the highest test concentration: human, 30 μM. As for the experimental part:
Whole-cell patch clamp technique was used to record hERG current. A cell suspension was added to a 35 mm Petri dish, and the dish was then placed on an inverted microscope stage. After the adherence of cells, they were perfused with extracellular fluid at a flow rate of 1-2 mL/min. A glass microelectrode was drawn by a microelectrode puller in two steps, and the pipette tip resistance was between 2-5 MΩ. After establishing the whole cell recording, the clamp potential was held at −80 mV, followed by depolarization to +60 mV when given voltage stimulation and then repolarization to −50 mV to elicit hERG tail current. All recordings were performed after the current was stable. Extracellular perfusion administration started from a low concentration, staying for 5-10 min at each concentration until the current was stable, and then cells were further perfused with the next concentration.
(In general: hERG is a cardiac potassium channel; its block is linked to QT prolongation.)

The subject of the next series is HIF-2α. Nature of the series: Expression of HIF-2α protein in Hep3B cells (western blot, grayscale analysis). The class given is cell-based, Human. Conditions: for fold induction at 30 µM: Homo sapiens, 2 h, compound at 30 μM, 10 μM and 3 μM, read-out: HIF-2α level of the compound of the present disclosure/HIF-2α level of blank control. As for the experimental part: A test compound was dissolved in dimethyl sulfoxide into a 100 mM stock solution, and then was diluted with 0.5% FBS-containing DMEM medium into 30 μM, 10 μM and 3 μM for later use. Human liver cancer cells Hep3B were seeded in a six-well plate at a density of 2.25*10^5 cells/well, 2 mL per well. After cultivation overnight, the cells were treated with compounds at different concentrations for 2 h. The proteins were extracted for western blot and further grayscale analysis.
Background: Immunoblotting shows a protein as a band on a membrane.

The test system of series [1] is Erythropoietin in liver cancer cells Hep3B. Nature of the series: Expression of erythropoietin in liver cancer cells Hep3B in vitro (EPO ELISA of supernatant). Format: cell-based, Human. As for the experimental part: The cells were adherent cultured overnight, and after discarding the used medium. In the 96-well culture plate, the cells were washed once with 0.5% FBS-containing DMEM medium. […] 0.5% FBS-containing DMEM medium was used instead of the drug solution as the control well. After incubation in a 37° C., 5% CO2 incubator for 24 h, the supernatant was taken as a sample and frozen at −20° C. for later use. An Elisa kit (abeam) was used to detect EPO in the cell supernatant. A microplate reader was used to detect the OD value at 450/620 nm.

Each structure is given as a SMILES string. Bounds are passed on as bounds.

hERG channels, sequence (Q12809 whole entry, the tested form may be a part): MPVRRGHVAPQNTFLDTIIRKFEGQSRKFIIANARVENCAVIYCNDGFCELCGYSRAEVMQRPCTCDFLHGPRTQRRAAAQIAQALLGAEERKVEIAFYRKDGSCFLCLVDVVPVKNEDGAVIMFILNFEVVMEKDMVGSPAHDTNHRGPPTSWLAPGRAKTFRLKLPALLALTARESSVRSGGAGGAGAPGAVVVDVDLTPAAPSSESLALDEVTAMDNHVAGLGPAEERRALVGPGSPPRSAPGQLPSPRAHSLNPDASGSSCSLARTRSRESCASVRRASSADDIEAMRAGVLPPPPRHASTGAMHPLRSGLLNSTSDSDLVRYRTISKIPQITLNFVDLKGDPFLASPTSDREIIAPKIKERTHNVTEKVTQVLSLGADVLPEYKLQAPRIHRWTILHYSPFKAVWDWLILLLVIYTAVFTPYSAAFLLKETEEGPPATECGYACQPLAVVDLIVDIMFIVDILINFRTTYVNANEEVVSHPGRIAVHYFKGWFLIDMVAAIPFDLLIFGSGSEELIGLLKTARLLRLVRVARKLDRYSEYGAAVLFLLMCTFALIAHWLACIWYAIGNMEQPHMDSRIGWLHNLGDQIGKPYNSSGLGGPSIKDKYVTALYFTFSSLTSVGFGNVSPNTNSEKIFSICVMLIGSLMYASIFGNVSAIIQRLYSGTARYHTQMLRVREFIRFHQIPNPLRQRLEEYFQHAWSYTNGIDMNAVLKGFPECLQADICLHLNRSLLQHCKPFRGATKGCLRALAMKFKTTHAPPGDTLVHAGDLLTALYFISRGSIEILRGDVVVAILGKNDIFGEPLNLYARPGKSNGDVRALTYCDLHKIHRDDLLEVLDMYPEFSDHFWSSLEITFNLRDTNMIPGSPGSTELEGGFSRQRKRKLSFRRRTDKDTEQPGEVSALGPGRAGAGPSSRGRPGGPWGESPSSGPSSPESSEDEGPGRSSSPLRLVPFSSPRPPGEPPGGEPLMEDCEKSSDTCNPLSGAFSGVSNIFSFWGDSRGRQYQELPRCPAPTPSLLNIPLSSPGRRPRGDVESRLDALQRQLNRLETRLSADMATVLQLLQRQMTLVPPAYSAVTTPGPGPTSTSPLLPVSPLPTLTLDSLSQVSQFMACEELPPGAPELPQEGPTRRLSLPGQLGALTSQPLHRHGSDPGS

Consider `O=C(O)CNC(=O)c1nc(Br)c2nc(Oc3ccccc3)ccc2c1O` [Link-121, 2-(2-phenoxy-5-hydroxy-8-bromo-1,7-naphthyridine-6-formamido) Acetic Acid], for which, on PHD2, the “Effect on PHD2 compared with compounds of Comparative Examples 1-3” value is reported as “better effect” and the concentration for half-maximal inhibition (IC50) is 353 nM. Besides, at hERG channels, the IC50 is > 30000 nM and the “Inhibitory effect on hERG current at the highest test concentration” value was “far from the IC50 value”. Further, in the series with HIF-2α, the “HIF-2α protein expression compared with blank control” value is on record as “higher than that of the blank control” and the fold induction at 30 µM is 4.5 to 8.5. Also, the “EPO-enhancing effect compared with positive control drug FG4592” value in series [1] is given as “higher than that of the positive control drug FG4592”.
Take `O=C(O)CNC(=O)c1nc(Cl)c2nc(Oc3ccccc3)ccc2c1O` [Link-118, 2-(2-phenoxy-5-hydroxy-8-chloro-1,7-naphthyridine-6-formamido) Acetic Acid]: on PHD2, the “Effect on PHD2 compared with compounds of Comparative Examples 1-3” value was “better effect” and 207 nM corresponded to half-maximal inhibition (IC50). Further, at hERG channels, the IC50 is > 30000 nM and the “Inhibitory effect on hERG current at the highest test concentration” value is reported as “far from the IC50 value”. For the same compound, in the series on HIF-2α, the “HIF-2α protein expression compared with blank control” value is “higher than that of the blank control” and the fold induction at 30 µM was in the range of 4.5 to 8.5. Also, in series [1], the “EPO-enhancing effect compared with positive control drug FG4592” value is “higher than that of the positive control drug FG4592”.

In general, IC50 refers to the concentration that inhibits the measured activity by half. Higher therefore signals weaker potency.

Source of the values: patent US11981669B2, “1,7-naphthyridine derivative and preparation method and use therefor” (CSPC ZHONGQI PHARMACEUTICAL TECHNOLOGY (SHIJIAZHUANG) CO., …, priority 2018, dated 2024).
